“Also recorded” adds a separate entry of the source. Values belong to the compound of their own block, whether it stands above or below them.
Legend:
antibody 2D12.5 = test: competitive immunoassay (ELISA) of metal-DOTA complexes relative to Y-DOTA; type: binding, murine; conditions: for binding compared with the original Y^3+ complex / other rare earths: DOTA complexes, 37° C.; for relative binding of Y-DOTA molecules with different sidechain locations (FIG. 17): Y complexes
Source text: FIG. 13 is graphical display showing the relative binding of metal-DOTA complexes to antibody 2D 12.5. A representative set of competitive binding curves obtained from ELISA experiments described in Example 3 below. Error bars (representing the standard error of the mean) are shown, but are generally smaller than the data points.
To determine the metal selectivity of the antibody 2D12.5, a competitive immunoassays was used to measure the binding constants of multiple metal-DOTA complexes relative to Y^3+-DOTA.
We examined the monoclonal antibody 2D12.5, initially developed to bind specifically to Y-DOTA for targeted radiotherapy (see, e.g., Goodwin et al., Cancer Res. 54: 5937-5946 (1994)), in order to determine the scope of its activity. To assess the metal selectivity of antibody 2D12.5, a competitive immunoassay to measure the binding constants of various metal-DOTA complexes relative to the original Y^3+ complex was developed (FIG. 12). Briefly, 2D12.5 was incubated at 37° C. in the presence of immobilized Y-DOTA and a soluble metal-DOTA competitor. The metal-DOTA concentration was varied from μM to pM in order to determine the relative binding affinity of 2D12.5 for each metal chelate in comparison to Y-DOTA. Binding was measured by standard methods known to those of skill in the art. The DOTA analog used to evaluate binding was [S]-2-(p-nitrobenzyl)-DOTA, which is similar to the original antigen.

N85D_G54C 2D12.5 mutant = test: permanent binding of metal-AABD and metal-NBD complexes, Western blot (Example 10); conditions: metal-NBD complexes
Protocol: The native antibody 2D12.5 binds all rare earth DOTA complexes with high affinity (Corneillie et al., J. Am. Chem. Soc. 125:3436-37, 2003) and other metals with affinities that are weaker. […] Therefore, this mutant was selected for the present example.
Metallation of Chelates with stable metal cations. Metals tested in this experiment included Y, La, Lu, Sr and Sc. Stock chelate concentrations were measured using a Co-57 metal binding assay (Meares et al., Anal. Biochem. 142:68-78, 1984). Stock metal solutions (approximately 0.2 M) were prepared by dissolving the appropriate gravimetrically measured rare earth chloride salt in 0.05 M HCl. As an example, YCl3 (2.5 equivalents) was added to 25 μL of NBD ([…]) dissolved in 0.1 M tetramethylammonium acetate, and the pH was adjusted to 5 by the addition of triethylamine. The metallation was allowed to proceed overnight at 50° C. Samples were promptly frozen at −70° C., and metallation efficiency was assessed using a competitive metal-binding assay with Co-57^3. Excess metal was scavenged with DTPA, which has very low affinity for the antibody (<<1%).
Metal-AABD and metal-NBD complexes were incubated with 2D12.5 Fab mutant N85D_G54C and samples denatured, reduced and separated by SDS-PAGE, as described for Y-90 in the previous examples. […]

2D12.5 = test: relative binding affinities of metal NBD/AABD complexes and DTPA to 2D12.5; set-up: species or system murine
Protocol: FIG. 18 is a graphical display showing the relative binding affinities of the NBD complexes of various metal ions relative to Y-NBD.
Relative binding affinities of NBD complexes of various metals ions relative to Y-NBD were determined by methods known in the art and described herein and shown in FIG. 18.

Compound: O=C([O-])CN1CCN(CC(=O)[O-])CCN(CC(=O)[O-])CCN(CC(=O)[O-])CC1.[Eu+3] [Eu-DOTA]
binding compared with the original Y^3+ complex / other rare earths (antibody 2D12.5): strongest binders

Compound: (5-Amino-2-methoxy-phenyl)-carboxymethyl)-DOTA
relative binding of Y-DOTA molecules with different sidechain locations (FIG. 17) (antibody 2D12.5): decrease in the binding affinity

Compound: O=C([O-])CN1CCN(CC(=O)[O-])CCN(CC(=O)O)CCN(CC(=O)[O-])CC1.[Gd+3] [Gd-DOTA]
binding compared with the original Y^3+ complex / other rare earths (antibody 2D12.5): bind more tightly; also recorded: strongest binders

Compound: O=C(O)CN1CCN(CC(=O)O)CCN(CC(=O)O)[C@@H](Cc2ccc([N+](=O)[O-])cc2)CN(CC(=O)O)CC1 [NBD]
permanent bond with N85D_G54C 2D12.5, non-electrophilic negative control (N85D_G54C 2D12.5 mutant): negative

Compound: O=C(O)CN1CCN(CC(=O)O)CCN(CC(=O)O)[C@H](Cc2ccc([N+](=O)[O-])cc2)CN(CC(=O)O)CC1 (single isomer, unassigned) [(R)-isomer of 2-(4-nitrobenzyl)-DOTA]
decrease of affinity as compared to the (S), Λ isomer (antibody 2D12.5; coordinated metal Y^3+ (FIG. 16)): less than an order of magnitude

affinity for the antibody (2D12.5): < 1%
Compound: O=C(O)CN(CCN(CC(=O)O)CC(=O)O)CCN(CC(=O)O)CC(=O)O [DTPA]

Compound: O=C(O)CN1CCN(CC(=O)O)CCN(CC(=O)O)[C@@H](Cc2ccc([N+](=O)[O-])cc2)CN(CC(=O)O)CC1 [Y-NBD, (S)-2-(4-nitrobenzyl)-DOTA]
relative binding of Y-DOTA molecules with different sidechain locations (FIG. 17) (antibody 2D12.5): clearly stronger | relative binding of Y-DOTA isomers (FIG. 16) (antibody 2D12.5; coordinated metal Y^3+): preferred isomer for binding | binding rank of NBD complexes among the rare earths (2D12.5): one of the strongest binders
